Measured values: patent US20180221329A1, “CIS- AND TRANS-SUFFRUTICOSOL D AS THERAPEUTIC AGENTS” (MIDDLE TENNESSEE STATE UNIVERSITY, priority 2015, published 2018)

Key:
[1] = test system: HMEC cells (primary human mammary breast epithelial cells); assay: Cell proliferation assay (AlamarBlue), normal HMEC; assay type: cell-based; settings: 48 h
Method: Cell culture. Four human cancer cell lines including A549 (lung carcinoma), BT20 (estrogen receptor-negative human breast adenocarcinoma), MCF-7 (estrogen receptor-positive human breast adenocarcinoma) and U2OS (human osteosarcoma) were purchased from American Type Culture Collection (ATCC). An A549 cell line that stably expresses Green Fluorescent Protein (GFP) was purchased from Cell BioLabs Inc. (San Diego, Calif., USA). A549, A549-GFP and BT20 cells were cultured in RPMI 1640 media (Sigma-Aldrich, St. Louis, Mo., USA), MCF7 cells were cultured in DMEM medium (ATCC, Manassas, Va., USA), and U20S cells were cultured in McCoy's 5A medium (ATCC, Manassas, Va., USA). As a control, HMEC cells (primary human mammary breast epithelial cells) were purchased from ATCC and cultured in McCoy's 5A medium. All medium contained 10% FBS (Sigma-Aldrich, St. Louis, Mo., USA) and 1% streptomycin and penicillin (Sigma-Aldrich, St. Louis, Mo., USA). These cells were incubated in a humid environment with 5% CO2 at 37° C.
Cell proliferation assay. The resazurin reduction reagent AlamarBlue (Invitrogen, Frederick, Md., USA) was used to evaluate the cytotoxicity of the compounds. Cells were plated at a density of 5×10^3 cells per well in 96-well microplates with 100 μl culture medium, and were allowed to attach for 16 h prior to treatment. Next, all the medium was replaced with medium containing the cis- or trans-suffruticosol D compounds at seven different concentrations: 320, 100, 32, 10, 3.2, 1.0, and 0.32 μM. The cells were placed in an incubator for 48 h at 37° C. Cells that were treated with medium-containing vehicle (1% DMSO) only serve as negative control. Subsequently, AlamarBlue solution was added to the medium and the cells were incubated in the CO2 incubator for 1 h. The fluorescent intensity change of the dye was measured at Ex 555 nm and Em 590 nm using a plate reader (Molecular Devices, Sunnyvale, Calif., USA). The cytotoxicity was examined by determining by IC50, the dose that inhibited 50% of cell growth, using GraphPad Prism software (GraphPad Software, La Jolla, Calif., USA).
Table 1. IC50 values of cis- and trans-suffruticosol D in selected cancer and normal cell lines. Cells were treated with various concentrations of cis- or trans-suffruticosol D for 48 h, and the viability of cells was evaluated with AlamarBlue dye.

[2] = test system: apoptotic proteins in A549 cells; assay: Apoptosis antibody array; assay type: cell-based, human; settings: 50 μM, 6 h
Method: F, Effect of cis- or trans-suffruticosol D on key regulatory proteins of apoptosis, Hsp60, Hsp70, survivin, and X-linked inhibitor of apoptosis protein (XIAP) (n=4).
Apoptosis antibody array. The Human Apoptosis Antibody Array Kit (RayBiotech, Inc., Norcross, Ga. USA) was used to evaluate apoptotic protein expression according to the manufacturer's instructions. A549 cells were plated at 8,000 cells/well intensity in a 96-well plate and then treated with cis or trans-suffruticosol D at a concentration of 50 μM for 6 h. The cells were lysed in lysis buffer with protease inhibitors. The cell lysates were concentrated using a protein concentration column (EMD Millipore, Billerica, Mass., USA) to a total protein concentration of 2 mg/ml. The samples were then diluted 10 fold with assay buffer and incubated with an array membrane for 2 h at room temperature, and washed with washing buffer five times. Subsequently, the cocktail of biotin-conjugated antibody mix was added to the membrane and incubated overnight at 4° C. The samples were then incubated with HRP-conjugated streptavidin for 2 h at room temperature and chemiluminescence substrate was used to detect the signal. Image Studio software (LI-COR Biotechnology) was used to quantify the intensity of each array dot and then normalized to the internal control.

[3] = test system: A549 cells; assay: Multi-parameter cytotoxicity assay (HCS); assay type: cell-based, human; settings: 24 h; for mitochondrial membrane potential: all tested concentrations
Method: FIGS. 5A-D depict multi-parameter analysis of cytotoxicity induced by cis- and trans-suffruticosol D in A549 cells. A549 cells were treated with various concentrations of cis- or trans-suffruticosol D for 24 h, then stained with three dyes simultaneously (Hoechst, cell permeability dye, and mitochondrial membrane potential dye). Cells treated with vehicle only served as a negative control and cells treated with 10 μM valinomycin served as a positive control.
Multi-parameter cytotoxicity assay. HCS analysis was used to measure nuclear morphology, cell membrane permeability, and mitochondrial membrane potential changes, the three parameters associated with cytotoxicity. A549 cells were treated with different concentrations of cis- or trans-suffruticosol D for 24 h. The cells were then fixed and stained with a warm solution containing Hoechst dye, Membrane Permeability Dye, and Mitochondrial membrane Potential Dye (Thermo Scientific, Waltham, Mass., USA). Cells were imaged using an Arrayscan VTI HCS reader (Thermo Scientific, Waltham, Mass., USA). Data on nuclear size, cell permeability, and mitochondria membrane potential were collected and analyzed using vHCS Scan software.

[4] = test system: NF-κB p65 nuclear translocation; assay: NF-κB nuclear translocation assay (HCS); assay type: cell-based, human; settings: 4 h, then TNF-α 30 min, A549
Method: FIGS. 6A and 6B depict inhibition of NF-κB translocation by cis- and trans-suffruticosol D in A549 cells. A549 cells were treated with various concentrations of cis- or trans-suffruticosol D for 4 h and then stimulated with […] TNF-α for 30 min. Cells treated with TNF-α alone or the vehicle only served as controls. The NF-κB translocation index was measured by the fluorescent intensity difference between the nucleus and cytoplasm.
NF-κB nuclear translocation assay. A Multiplexed NF-κB activation HCS Kit (Thermo Scientific, Waltham, Mass., USA) was used to assess NF-κB nuclear translocation. A549 cells were pre-treated with different concentrations of cis- or trans-suffruticosol D for 4 h, then 10 ng/mL of TNF-α was added to the cells for an additional 30 min. After treatment, cells were fixed and permeabilized prior to detection. NF-κB distribution was detected by adding NF-κB p65 primary antibodies and then staining with a secondary antibody conjugated with DyLight 549 and Hoechst dye (Thermo Scientific, Waltham, Mass., USA). […] Cells were imaged using an Arrayscan VTI HCS reader (Thermo Scientific, Waltham, Mass., USA). Data on the mean difference of NF-κB fluorescent intensity between the nuclear and cytoplasmic areas were collected and analyzed by vHCS Scan software.

| Compound | IC50 [1] [µM] | IC50 ([1]; listed as cis-SD) [µM] | Hsp60 expression [2] | Hsp70 expression [2] | X-linked inhibitor of apoptosis protein (XIAP) expression [2] | survivin expression [2] | mitochondrial membrane potential [3] | cell membrane permeability ([3]; various concentrations) | nuclear size ([3]; various concentrations) | inhibition of NF-κB activation (nuclear translocation index) ([4]; 100 μM only) | IC50 ([1]; listed as trans-SD) [µM] | IC50 ([1]; Homo sapiens, HMEC) [µM] | cell membrane permeability ([3]; 100 μM) | nuclear size ([3]; 100 μM) | inhibition of NF-κB activation (nuclear translocation index) ([4]; all the tested concentrations) |
| --- | --- | --- | --- | --- | --- | --- | --- | --- | --- | --- | --- | --- | --- | --- | --- |
| Oc1ccc(C=Cc2c3c(cc4c2[C@@H](c2cc(O)cc(O)c2)[C@H](c2ccc(O)cc2)O4)O[C@H](c2ccc(O)cc2)[C@@H]3c2cc(O)cc(O)c2)cc1 [cis-suffruticosol D] | 146 | 269.5 ± 2.2 | significant down regulation | significant down regulation | significant down regulation | significant down regulation | significant decrease | no significant change | no significant change | significant inhibition | – | – | – | – | – |
| Oc1ccc(/C=C/c2c3c(cc4c2[C@@H](c2cc(O)cc(O)c2)[C@H](c2ccc(O)cc2)O4)O[C@H](c2ccc(O)cc2)[C@@H]3c2cc(O)cc(O)c2)cc1 [trans-suffruticosol D] | – | – | significant down regulation | significant down regulation | significant down regulation | significant down regulation | significant decrease | – | – | – | 146 ± 2.7 | 270 | increased cell membrane permeability | nuclei shrinkage | significant inhibition |
